The subject of one assay is Amoeba. Kind of assay: Control of Amoeba contamination in microalgae culture, microscope examination. The format is cell-based, Amoeba sp. An excerpt:
If the contaminated alga liquid is identified as alkali tolerant contamination, CO2 is aerated into the culture system of microalgae, so as to lower the pH value. At this time, the appearance of the algae cells and the harmful organisms are observed under a microscope. When the harmful organisms has been inhibited or inactivated, air is sufficiently aerated into the culture system and the pH value is adjusted back to the optimal pH suitable for microalgae growth. In an embodiment, the concentration of CO2 reaches saturation. In an alternative embodiment, the pH value can be adjusted back to the optimal pH suitable for microalgae growth with ammonia (one of the nitrogen sources used by microalgae). In an embodiment, the pH value can be adjusted back to the optimal pH suitable for microalgae growth with NaOH. In an embodiment, the used NaOH is 1M NaOH. In an embodiment, the pH is 5.6-5.7 in the alga culture system with a saturated concentration of CO2. In an alternative embodiment, if the algae are marine algae (such as in the case of Dunaliella tertiolecta), the aerated CO2 can maintain pH within the range of 6.0-6.5. After that, if the harmful organisms have been determined to be in control (for instance, most of Amoeba have become spherical), salinity is reduced by diluting with water (salinity is the ratio between the mass of the solute in seawater and the mass of seawater), followed by sufficient aeration with air, so as to adjust the pH and salinity to a condition suitable for alga growth. In an embodiment (for example, in the case that the alga is Nannochloris sp. or Dunaliella tertiolecta), CO2 can be aerated intermittently. In an embodiment, CO2 can be aerated at an interval of two hours. In an embodiment, the culture system is maintained at pH 6.0-6.5 for 2 days, followed by decreasing 1% of the salinity by adding water. In an embodiment, the culture system is maintained with saturated CO2 for about 28 hours. In an embodiment, CO2 is kept at saturation for about 27 hours in the culture system. In an embodiment, saturated CO2 is aerated continuously into the culture system for 36 hours. In an embodiment, CO2 is aerated periodically at an interval of 2 hours (pH is in the range of 5.0-8.5), for 2 days.
Microscope examination is always used as one of the bases for determining the growth status in the process of microalgae culture. As a result, all the early-stage contamination is found by microscope examination. For example, when the alga liquid without microscope examination is contaminated, it's color generally changes into e.g. brown or brown spots are observed on the wall of the reactor, etc. However the contamination has become severer once the color change is observed directly.
Salinity was reduced by 1% (e.g. from 9% to 8%) by way of dilution with water. Then air was sufficiently aerated.
(§1) Chlorella sp. […] Modified SM medium (see Table 2) was used. […] Then air was sufficiently aerated.
Chlorococcum sp. […] Modified BG11 medium (see Table 3) was used. […] CO2 was aerated continuously.
(§2) Chlorococcum sp. […] Modified BG11 medium (see Table 3) was used. […] Then air was sufficiently aerated. Eighteen hours later, Chlorococcum sp. could resume to grow.
Nannochloris sp. […] Modified BG11 medium (see Table 4) was used. […] Then CO2 was aerated periodically at an interval of 2 hours (pH ranged within 5.0-8.5).
(§3) Modified SM (see Table 2) was used. […] Then air was sufficiently aerated. Twenty-four hours later, the algae could resume to grow.
(§4) Then air was sufficiently aerated. Eighteen hours later, Chlorococcum sp. could resume to grow.
(§5) Modified SM (see Table 2) was used. […] One hour later, CO2 was aerated to saturation for 23 hour continuously (about pH 5.8). […] Then air was sufficiently aerated. Twenty-four hours later, the algae could resume to grow.

A further assay deals with ciliate. The experiment in a line: Control of ciliate contamination (mixed contamination) in microalgae culture, microscope examination. Type of assay: cell-based.
Text: In an embodiment, the pH of the culture system is first raised by alkalis, followed by aeration of CO2 to saturation. When the harmful organisms are observed as being in control under a microscope (for example, these harmful organisms such as Oxyrrhis, Amoeba and ciliate cannot be observed under a microscope or the activity of the harmful organisms has been reduced), the pH value is then adjusted back to the optimal pH suitable for microalgae growth by sufficiently aerating air. In an embodiment, an interval of 1 hour exists between the step of raising pH of the culture system with an alkali and the step of aerating CO2 to saturation. In an embodiment, said alkali can be ammonia. In an embodiment, said alkali can be 1M NaOH. […] In an embodiment, the pH of the culture system is adjusted to 11.5-12.0, 11.0-11.8 or 8.0-11.0 with 1M NaOH or 1M ammonia. In an embodiment, the pH of the culture system is adjusted to 11.5-12.0, 11.0-11.8 or 8.0-11.0 and maintained for 1 hours, followed by aeration of CO2 to saturation for about 24 hours. In an embodiment, the pH of the culture system is adjusted to 11.5-12.0, 11.0-11.8 or 8.0-11.0 and maintained for 1 hours, followed by aeration of CO2 to saturation for about 23 hours.
as §1, §2, §3, §4, §5

Setting [1] is: Example 4, after 1M NaOH pH 11.0-11.8 1 h, CO2 to saturation (pH 5.6) 24 hours.
Setting [2] is: Example 7, after 1M NaOH pH 11.5-12.0 1 h, CO2 to saturation (about pH 5.6) 24 hour.
Where [3] appears, read: Example 12, after 1M ammonia pH 9.0 1 h, CO2 to saturation (pH 5.6) 24 hours.
Setting [4] is: Example 14, after 1M ammonia pH 9.0 1 h, CO2 to saturation (about pH 5.6) 24 hour.

Entries after “also recorded” stand apart in the source; their conditions may differ.

In the case of `O=C=O` [CO2, carbon dioxide], the “Amoeba, result of microscope examination” value in the assay on Amoeba (Example 1, Dunaliella tertiolecta culture, CO2 aerated intermittently, pH 6.0-6.5, two days) was “most Amoebae were found to become spherical”; in the assay on Amoeba (Example 1, after CO2 pH 6.0-6.5 two days, salinity reduced by 1%, air aerated, twenty-four hours later), “almost no Amoeba”; in the assay on Amoeba (Example 3, Chlorella sp. culture, CO2 aerated continuously, saturated, pH 5.6-5.7, one hour) it was “most Amoebae were found to become spherical and lose activity”; with Amoeba (Example 3, saturated CO2, twenty-seven hours after the first hour (about 28 hours)), “almost no intact Amoeba was observed; also recorded: almost no Amoeba was found”; with Amoeba (setting [1]), “no Amoeba”; with Amoeba (Example 5, Chlorococcum sp. culture, CO2 saturated, pH about 5.6-5.7, one hour), “most Amoeba turned into spherical, were inactivated and could not change shape or move”. Further, the “Amoeba, result of microscope examination” value in the assay on Amoeba (Example 5, saturated CO2, twenty-seven hours later) is “almost no intact Amoeba were observed”; in the assay on Amoeba (setting [2]) it was “no Amoeba”; with Amoeba (Example 9, Nannochloris sp. culture, CO2 aerated periodically at an interval of 2 hours (pH 5.0-8.5), two days), “no Amoeba was observed; also recorded: essentially in control”; in the assay on Amoeba (Example 10, Spirulina maxima culture, after 1M NaOH pH 11.5-12.0 1 h, CO2 to saturation (about pH 5.8) 23 hour) it was “no Amoeba”; in the assay with Amoeba (setting [3]), “no Amoeba”; with Amoeba (setting [4]), “no Amoeba”. In addition, the “Amoeba, result of microscope examination” value in the assay on Amoeba (Example 15, Spirulina maxima culture, after 1M ammonia pH 10.0 1 h, CO2 to saturation (about pH 5.8) 23 hour) is recorded as “no Amoeba”. Besides, the “ciliates, result of microscope examination” value with ciliate (setting [1]) is “a few inactive and immotile ciliates”; in the assay with ciliate (setting [2]), “a few inactive and immotile ciliates”; in the assay with ciliate (Example 10, after 1M NaOH pH 11.5-12.0 1 h, CO2 to saturation (about pH 5.8) 23 hour), “a few inactive and immotile ciliates”; in the assay with ciliate (setting [3]), “a few inactive and immotile ciliates”; with ciliate (setting [4]), “a few inactive and immotile ciliates”; with ciliate (Example 15, after 1M ammonia pH 10.0 1 h, CO2 to saturation (about pH 5.8) 23 hour), “a few inactive and immotile ciliates”.

The values above are taken from patent US8759073B2, “Method for effectively controlling harmful organisms in large-scale culture of microalgae” (ENN Science & Technology Development Co., Ltd., priority 2009, dated 2014).
